Drawing on patent US11111243B2, “Azaindole compounds as histone methyltransferase inhibitors” (GLOBAL BLOOD THERAPEUTICS, INC., priority 2017, dated 2021), this text covers IC50 for 26 molecules.

Each structure is given as a SMILES string. Structures can show the parent of a compound that is named as a salt. Some results are limits rather than exact numbers.

The target in the assay is T1, G9a (Homo sapiens, UniProt Q96KQ7).
T1 sequence (Q96KQ7 1-1210): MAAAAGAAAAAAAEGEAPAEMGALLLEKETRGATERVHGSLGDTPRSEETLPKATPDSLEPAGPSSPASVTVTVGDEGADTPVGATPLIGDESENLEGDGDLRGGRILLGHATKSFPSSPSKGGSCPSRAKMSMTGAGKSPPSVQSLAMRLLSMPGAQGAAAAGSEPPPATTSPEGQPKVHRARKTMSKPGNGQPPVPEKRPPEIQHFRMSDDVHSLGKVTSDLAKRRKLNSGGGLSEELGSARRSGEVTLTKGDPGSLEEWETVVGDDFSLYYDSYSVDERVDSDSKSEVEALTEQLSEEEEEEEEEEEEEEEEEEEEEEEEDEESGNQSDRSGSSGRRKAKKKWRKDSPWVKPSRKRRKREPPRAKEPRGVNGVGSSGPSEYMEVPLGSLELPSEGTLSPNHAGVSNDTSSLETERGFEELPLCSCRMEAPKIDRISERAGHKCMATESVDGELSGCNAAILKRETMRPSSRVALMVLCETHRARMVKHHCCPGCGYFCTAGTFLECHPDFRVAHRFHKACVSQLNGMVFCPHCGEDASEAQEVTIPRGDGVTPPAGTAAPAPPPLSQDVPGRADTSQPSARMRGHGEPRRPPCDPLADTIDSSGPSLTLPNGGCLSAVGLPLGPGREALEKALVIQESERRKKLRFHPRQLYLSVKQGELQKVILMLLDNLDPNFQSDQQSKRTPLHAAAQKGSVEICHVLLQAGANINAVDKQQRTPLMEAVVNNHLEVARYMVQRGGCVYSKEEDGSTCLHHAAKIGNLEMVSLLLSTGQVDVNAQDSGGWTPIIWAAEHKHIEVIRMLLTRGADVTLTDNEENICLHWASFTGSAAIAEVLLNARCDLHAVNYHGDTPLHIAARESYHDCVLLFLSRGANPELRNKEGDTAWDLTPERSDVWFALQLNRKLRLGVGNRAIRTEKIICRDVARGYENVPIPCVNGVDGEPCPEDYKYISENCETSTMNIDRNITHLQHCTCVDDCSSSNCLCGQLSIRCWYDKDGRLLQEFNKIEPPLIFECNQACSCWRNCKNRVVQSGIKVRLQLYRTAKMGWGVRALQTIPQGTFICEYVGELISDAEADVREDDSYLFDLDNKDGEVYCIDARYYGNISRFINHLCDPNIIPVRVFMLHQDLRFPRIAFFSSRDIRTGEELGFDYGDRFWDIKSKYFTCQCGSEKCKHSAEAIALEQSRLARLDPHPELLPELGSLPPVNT
The experiment in a line: G9a AlphaLISA enzymatic activity assay. In kind it is biochemical. The conditions noted are these: 0.15 nM G9a, 10 uM S-adenosyl-methionine, 100 nM biotinylated histone 3 peptide (1-21), 1 h room temperature. The text has this: The G9a AlphaLISA assay was used to detect the methyl modifications of a biotinylated histone H3 peptide by the compounds. These modifications are done by the histone methyl transferase activity of the G9a enzyme. The assay consists of reading a chemiluminescent signal at 615 nm; this signal is generated by a laser excitation at 680 nm that transfers a reactive singlet oxygen between the donor beads and acceptor beads. Donor beads are streptavidin conjugated and bind to the biotin on the peptide. Acceptor beads are conjugated with an antibody that recognizes the specific G9a methyl mark on the peptide. If there is a methyl mark on the peptide, the acceptor beads will bind to the peptide. Upon binding, the acceptor beads will be in close proximity (<200 nm) of the donor beads and when the donor beads are excited, the transfer of the oxygen can occur and a strong signal will be generated. If there is no methyl mark, the interaction between beads will not occur and signal will be at background levels.
For the assay, the following buffer was used to set up reactions: 50 mM Tris-HCl pH9, 50 mM NaCl, 0.01% Tween-20 and 1 mM DTT (added fresh prior to starting the reactions). The assay is set up by adding a final concentration of 0.15 nM G9a, 10 uM S-adenosyl-methionine and, 100 nM biotinylated histone 3 peptide (1-21). The reaction is incubated at room temperature for 1 h, and subsequently quenched by the addition of the acceptor beads (anti-H3k9me2 AlphaLISA acceptor beads, PerkinElmer #AL117) at a final concentration of 20 ug/mL. The acceptor beads are incubated for 1 h. After 1 h, the donor beads are added at a final concentration of 20 ug/mL (Alpha Streptavidin donor beads, PerkinElmer #6760002). Donor beads are incubated for 0.5 h. Both donor and acceptor beads are resuspended in AlphaLISA 5× Epigenetics Buffer 1 Kit (PerkinElmer #AL008) prior to addition to the reaction. All manipulations and incubations with the donor and acceptor beads are done in subdued light. Signal is detected in an EnVision plate reader in Alpha mode (See ACS Med Chem Lett. 2014 Jan. 2; 5(2):205-9)
Percent inhibition was calculated for each compound dilution and the concentration that produced 50% inhibition was calculated. This value is presented as the IC50.
`CCOCCNc1nccc2[nH]c3cc(OCCCN4CCCC4)c(OC)cc3c12` [Compound 20, N-(2-ethoxyethyl)-8-methoxy-7-[3-(pyrrolidin-1-yl)propoxy]-5H-pyrido[4,3-b]indol-1-amine] displayed an IC50 of 7 nM.
`COc1cc2c(cc1OCCCN1CCC1)[nH]c1ccncc12` [Compound 72, 1-[3-({8-methoxy-5H-pyrido[4,3-b]indol-7-yl}oxy)propyl]azetidine hydrochloride] yielded an IC50 of 9.1 nM.
In the case of `COc1cc2c(cc1OCCCN1CCCC1)[nH]c1ccnc(N3CCCC3)c12` [Compound 39, 1-{8-methoxy-7-[3-(pyrrolidin-1-yl)propoxy]-5H-pyrido[4,3-b]indol-1-yl}pyrrolidine], the half-inhibitory concentration (IC50) is 5.7 nM.
For `COc1cc2c(cc1OCCCN1CCCC1)[nH]c1ccnc(C)c12` [Compound 29, 1-[3-({8-methoxy-1-methyl-5H-pyrido[4,3-b]indol-7-yl}oxy)propyl]pyrrolidine hydrochloride] the value was 1.2 nM; for `COc1cc2c(cc1OCCCN1CCCC1)[nH]c1ccnc(N3CC4CCC(C3)O4)c12` [Compound 19, 3-{8-methoxy-7-[3-(pyrrolidin-1-yl)propoxy]-5H-pyrido[4,3-b]indol-1-yl}-8-oxa-3-azabicyclo[3.2.1]octane], 300 nM; for `COc1cc2c(cc1OCCCN1CC3CC(C3)C1)[nH]c1ccncc12` [Compound 98, 3-[3-({8-methoxy-5H-pyrido[4,3-b]indol-7-yl}oxy)propyl]-3-azabicyclo[3.1.1]heptane hydrochloride], 2800 nM.
Turning to `COc1cc2c(cc1OCCCN1CCCC1)[nH]c1ccnc(OC)c12` [Compound 100, 1-[3-({1,8-dimethoxy-5H-pyrido[4,3-b]indol-7-yl}oxy)propyl]pyrrolidine hydrochloride], the IC50 came to 380 nM.
For `COC[C@H](C)Nc1nccc2[nH]c3cc(OCCCN4CCCC4)c(OC)cc3c12` [Compound 14, 8-methoxy-N-[(2S)-1-methoxypropan-2-yl]-7-[3-(pyrrolidin-1-yl)propoxy]-5H-pyrido[4,3-b]indol-1-amine], the midpoint of inhibition, the IC50, lay at 6.5 nM.
Regarding `COc1cc2c(cc1OCCCN1CCCC1)[nH]c1ccncc12` [Compound 31, 1-[3-({8-methoxy-5H-pyrido[4,3-b]indol-7-yl}oxy)propyl]pyrrolidine hydrochloride], the IC50 amounted to 3.6 nM.
Take `COc1cc2c(cc1OCCCN1CCCC1)[nH]c1cc(N)ncc12` [Compound 8, 8-methoxy-7-[3-(pyrrolidin-1-yl)propoxy]-5H-pyrido[4,3-b]indol-3-amine]: the IC50 came out at 5.3 nM.
Molecule `CCN(C)CCCOc1cc2[nH]c3ccnc(C4CC4)c3c2cc1OC` [Compound 46, [3-({1-cyclopropyl-8-methoxy-5H-pyrido[4,3-b]indol-7-yl}oxy)propyl](ethyl)methylamine hydrochloride] gave an IC50 of 24 nM.
For `COc1cc2c(cc1OCCCN(C)C)[nH]c1ccnc(N3CCCC3)c12` [Compound 92, (3-{[8-methoxy-1-(pyrrolidin-1-yl)-5H-pyrido[4,3-b]indol-7-yl]oxy}propyl)dimethylamine hydrochloride] the value was 51 nM; for `COc1cc2c(cc1OCCCN1CCCC1)[nH]c1ccnc(N3CCCC3)c12` [Compound 15, 1-{8-methoxy-7-[3-(pyrrolidin-1-yl)propoxy]-5H-pyrido[4,3-b]indol-1-yl}pyrrolidine], 3.3 nM.
Molecule `COc1cc2c(cc1OCCCN1CCCC1)[nH]c1ccnc(F)c12` [Compound 9, 1-[3-({1-fluoro-8-methoxy-5H-pyrido[4,3-b]indol-7-yl}oxy)propyl]pyrrolidine] showed a half-inhibitory concentration (IC50) of 590 nM.
`COc1cc2c(cc1OCCCN1CCCC1)[nH]c1ccnc(-c3cccnc3)c12` [Compound 24, 8-methoxy-1-(pyridin-3-yl)-7-(3-(pyrrolidin-1-yl)propoxy)-5H-pyrido[4,3-b]indole] came in with an IC50 of 93 nM.
With `COc1cc2c(cc1OCCCN1CCCC1)[nH]c1ccnc(C3CCOCC3)c12` [Compound 65, 1-(3-{[8-methoxy-1-(oxan-4-yl)-5H-pyrido[4,3-b]indol-7-yl]oxy}propyl)pyrrolidine hydrochloride], the concentration for half-maximal inhibition (IC50) came to 8.2 nM.
Take `COc1cc2c(cc1OCCCN1CCCC1)[nH]c1ccnc(N3CCC(O)CC3)c12` [Compound 16, 1-{8-methoxy-7-[3-(pyrrolidin-1-yl)propoxy]-5H-pyrido[4,3-b]indol-1-yl}piperidin-4-ol]: the IC50 is 61 nM.
Molecule `COc1cc2c(cc1OCCCN1CCCC1)[nH]c1ccnc(-c3cncs3)c12` [Compound 78, 5-{8-methoxy-7-[3-(pyrrolidin-1-yl)propoxy]-5H-pyrido[4,3-b]indol-1-yl}-1,3-thiazole trifluoroacetate] displayed a 50% inhibitory concentration (IC50) of 260 nM.
For `COc1cc2c(cc1OCCCN1CCCC1)[nH]c1ccnc(-n3ccnc3)c12` [Compound 76, 1-{8-methoxy-7-[3-(pyrrolidin-1-yl)propoxy]-5H-pyrido[4,3-b]indol-1-yl}-1H-imidazole trifluoroacetate] the value was 960 nM.
`COc1cc2c(cc1OCCCN(C)C)[nH]c1ccnc(CCC(C)(C)O)c12` [Compound 49, 4-{7-[3-(dimethylamino)propoxy]-8-methoxy-5H-pyrido[4,3-b]indol-1-yl}-2-methylbutan-2-ol hydrochloride] displayed a 50% inhibitory concentration (IC50) of 45 nM.
`COc1cc2c(cc1OCCCN(C)C)[nH]c1ccnc(CCC3CC3)c12` [Compound 52, 3-((1-(2-cyclopropylethyl)-8-methoxy-5H-pyrido[4,3-b]indol-7-yl)oxy)-N,N-dimethylpropan-1-amine hydrochloride] yielded an IC50 of 100 nM.
The result for `COc1cc2c(cc1OCCCN1CCCC1)[nH]c1ccnc(OC(C)C)c12` [Compound 75, 1-(3-{[8-methoxy-1-(propan-2-yloxy)-5H-pyrido[4,3-b]indol-7-yl]oxy}propyl)pyrrolidine trifluoroacetate] reads 1000 nM.
The molecule `COc1cc2c(cc1OCCCN1CCCC1)[nH]c1ncccc12` [Compound 7, 1-[3-({6-methoxy-9H-pyrido[2,3-b]indol-7-yl}oxy)propyl]pyrrolidine] returned a half-inhibitory concentration (IC50) of 280 nM.
The result for `COc1cc2c(cc1OCCCN(C)C)[nH]c1ccnc(C3CCCC3)c12` [Compound 56, [3-({1-cyclopentyl-8-methoxy-5H-pyrido[4,3-b]indol-7-yl}oxy)propyl]dimethylamine hydrochloride] reads 15 nM; that for `COc1cc2c(cc1OCCCN(C)C)[nH]c1ccnc(N(C)C)c12` [Compound 93, 7-[3-(dimethylamino)propoxy)-8-methoxy-N,N-dimethyl-5H-pyrido[4,3-b]indol-1-amine hydrochloride], 61 nM.
Take `COc1cc2c(cc1OCCCN1CCCC1)[nH]c1cc(O)ncc12` [Compound 80, 8-methoxy-7-(3-(pyrrolidin-1-yl)propoxy)-5H-pyrido[4,3-b]indol-3-ol formate]: the half-maximal inhibitory concentration (IC50) is greater than 10000 nM.

As a reminder, the IC50 is the point on the concentration scale where inhibition reaches its midpoint. High values mean a need for much substance, low ones inhibition by little substance.
